22 molecules from patent publication US9771369B2, “Compounds and methods for kinase modulation, and indications therefor” (Plexxikon Inc., priority 2014, dated 2017) can be followed below.

The target in the experiment is c-Kit kinase (Homo sapiens (Human), UniProt P10721). Briefly: c-Kit biochemical assay (AlphaScreen kinase activity). As to the method: Assays for biochemical cell-based activity of c-kit kinase are known in the art, for example, as described in U.S. Pat. Nos. 7,498,342 and 7,846,941, the disclosures of which are hereby incorporated by reference as it relates to such assays. The c-kit (or kinase domain thereof) is an active kinase in AlphaScreen. IC50 values are determined with respect to inhibition of c-Kit kinase activity, where inhibition of phosphorylation of a peptide substrate is measured as a function of compound concentration. Compounds to be tested were dissolved in DMSO to a concentration of 30 mM. These were diluted 30 μl into 130 μl of DMSO (4 mM) and 1 μl was added to an assay plate. These were then serially diluted 1:3 (50 μl to 100 μl DMSO) for a total of 8 points. Plates were prepared such that each kinase reaction is 30 μl in 1× kinase buffer (50 mM HEPES, pH 7.2, 5 mM MgCl2, 5 mM MnCl2, 0.01% NP-40, 0.2% BSA), 5% DMSO and 10 μM ATP. Substrate was 100 nM biotin-(E4Y)3 (Open Source Biotech, Inc.). C-kit kinase was at 0.1 ng per sample. After incubation of the kinase reaction for 1 hour at room temperature, 5 μl of donor beads (Streptavidin coated beads (Perkin Elmer Life Science) final concentration 1 μg/ml) in stop buffer (50 mM EDTA in 1× kinase buffer) was added, the sample was mixed and incubated for 30 minutes at room temperature before adding […] of acceptor beads (PY30 coated beads (Perkin Elmer Life Science) final concentration 1 μg/ml) in stop buffer. The samples were incubated for 60 minutes at room temperature and the signal per well was read on AlphaQuest reader. Phosphorylated substrate results in binding of the PY30 antibody and association of the donor and acceptor beads such that signal correlates with kinase activity. The signal vs. compound concentration was used to determine the IC50.
c-Kit kinase, sequence (P10721 26-976): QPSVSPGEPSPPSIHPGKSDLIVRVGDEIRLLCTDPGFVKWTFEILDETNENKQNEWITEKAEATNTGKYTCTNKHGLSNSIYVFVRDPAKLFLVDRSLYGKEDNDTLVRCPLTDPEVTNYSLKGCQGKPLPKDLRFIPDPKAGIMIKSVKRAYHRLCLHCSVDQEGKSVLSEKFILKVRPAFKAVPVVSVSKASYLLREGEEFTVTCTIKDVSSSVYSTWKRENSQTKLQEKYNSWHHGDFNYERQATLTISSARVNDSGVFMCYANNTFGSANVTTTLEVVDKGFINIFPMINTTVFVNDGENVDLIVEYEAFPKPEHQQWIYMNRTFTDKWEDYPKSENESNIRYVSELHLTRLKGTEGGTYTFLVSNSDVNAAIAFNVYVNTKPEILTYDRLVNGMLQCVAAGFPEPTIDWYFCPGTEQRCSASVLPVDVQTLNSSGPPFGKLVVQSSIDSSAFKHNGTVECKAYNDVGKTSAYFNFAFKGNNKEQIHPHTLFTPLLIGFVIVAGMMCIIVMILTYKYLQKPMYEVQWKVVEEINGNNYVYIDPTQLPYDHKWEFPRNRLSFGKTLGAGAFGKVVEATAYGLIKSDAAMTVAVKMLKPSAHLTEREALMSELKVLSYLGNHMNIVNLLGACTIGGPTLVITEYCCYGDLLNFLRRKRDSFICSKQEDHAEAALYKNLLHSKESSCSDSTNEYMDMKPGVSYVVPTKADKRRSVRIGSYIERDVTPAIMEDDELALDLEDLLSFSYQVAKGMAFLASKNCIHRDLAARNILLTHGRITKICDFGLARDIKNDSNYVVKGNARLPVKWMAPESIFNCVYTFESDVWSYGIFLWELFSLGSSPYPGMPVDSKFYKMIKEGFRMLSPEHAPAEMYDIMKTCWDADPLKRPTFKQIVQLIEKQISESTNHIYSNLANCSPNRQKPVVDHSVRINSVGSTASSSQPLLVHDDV
Compounds were also tested using a similar assay with a 10-fold higher ATP concentration. For these samples, compounds to be tested were dissolved in DMSO to a concentration of 30 mM. These were diluted 30 μl into 130 μl of DMSO (4 mM) and 1 μl was added to an assay plate. These were then serially diluted 1:3 (50 μl to 100 μl DMSO) for a total of 8 points. Plates were prepared such that each kinase reaction is 30 μl in 1× kinase buffer (25 mM HEPES, pH 7.5, 2 mM MgCl2, 2 mM MnCl2, 0.01% […], 1 mM DTT, and 0.001% BSA), 5% DMSO and 100 μM ATP. Substrate was 30 nM biotin-(E4Y)10 (Upstate Biotech, Cat#12-440). C-kit kinase was at 1 ng per sample. After incubation of the kinase reaction for 1 hour at room temperature, 5 μl of donor beads (Streptavidin coated beads (Perkin Elmer Life Science) final concentration 10 μg/ml) in stop buffer (25 mM HEPES pH 7.5, 100 mM EDTA, 0.3% BSA) was added, the sample was mixed and incubated for 30 minutes at room temperature before adding 5 μl of acceptor beads (PY30 coated beads (Perkin Elmer Life Science) final concentration 10 μg/ml) in stop buffer. The samples were incubated for 60 minutes at room temperature and the signal per well was read on AlphaQuest or Envision reader (Perkin Elmer Life Science). Phosphorylated substrate results in binding of the PY30 antibody and association of the donor and acceptor beads such that signal correlates with kinase activity. The signal vs. compound concentration was used to determine the IC50.
The c-kit enzyme used in the above assay was either obtained from Cell Signaling Technology (Cat. #7754) or was prepared as follows: A plasmid encoding kit (DNA and encoded protein sequences shown below) was engineered using common polymerase chain reaction (PCR) methods. Complementary DNA cloned from various human tissues were purchased from Invitrogen, and these were used as substrates in the PCR reactions. Specific custom synthetic oligonucleotide primers were designed to initiate the PCR product, and also to provide the appropriate restriction enzyme cleavage sites for ligation with the plasmids. […]
With `COc1cc(-c2cc3c(N4CCC(c5nc(C)c(-c6ccc(F)cc6)[nH]5)CC4)ncnc3[nH]2)ccn1` [P-3007, 4-[4-[5-(4-fluorophenyl)-4-methyl-1H-imidazol-2-yl]-1-piperidyl]-6-(2-methoxy-4-pyridyl)-7H-pyrrolo[2,3-d]pyrimidine], the IC50 was in the range of 1 to 10 µM. Take `COc1cc(-c2cc3c(N4CCC(c5nc(C6CC6)c(-c6ccccc6)[nH]5)CC4)ncnc3[nH]2)ccn1` [P-3008, 4-[4-(4-cyclopropyl-5-phenyl-1H-imidazol-2-yl)-1-piperidyl]-6-(2-methoxy-4-pyridyl)-7H-pyrrolo[2,3-d]pyrimidine]: the 50% inhibitory concentration (IC50) is 0.0001 to 1 µM. As for `Fc1ccc(-c2cc3c(N4CCC(c5nc(C6CC6)c(-c6ccccc6)[nH]5)CC4)ncnc3[nH]2)cc1` [P-3009, 4-[4-(4-cyclopropyl-5-phenyl-1H-imidazol-2-yl)-1-piperidyl]-6-(4-fluorophenyl)-7H-pyrrolo[2,3-d]pyrimidine], the figure is 0.0001 to 1 µM; as for `N#Cc1ccc(-c2cc3c(N4CCC(c5nc(C6CC6)c(-c6ccccc6)[nH]5)CC4)ncnc3[nH]2)cc1` [P-3010, 4-[4-[4-(4-cyclopropyl-5-phenyl-1H-imidazol-2-yl)-1-piperidyl]-7H-pyrrolo[2,3-d]pyrimidin-6-yl]benzonitrile], 0.0001 to 1 µM; as for `Cc1nc(C2CCN(c3ncnc4[nH]c(-c5ccc(F)cc5)cc34)CC2)[nH]c1-c1cccc(OC(F)(F)F)c1` [P-3011, 6-(4-fluorophenyl)-4-[4-[4-methyl-5-[3-(trifluoromethoxy)phenyl]-1H-imidazol-2-yl]-1-piperidyl]-7H-pyrrolo[2,3-d]pyrimidine], 1 to 10 µM. On to `CCOc1cc(-c2[nH]c(C3CCN(c4ncnc5[nH]c(-c6ccc(C#N)cc6)cc45)CC3)nc2C)ccc1C` [P-3095, 4-[4-[4-[5-(3-ethoxy-4-methyl-phenyl)-4-methyl-1H-imidazol-2-yl]-1-piperidyl]-7H-pyrrolo[2,3-d]pyrimidin-6-yl]benzonitrile], for which the IC50 fell in the range of 0.0001 to 1 µM. The molecule `CCOc1cc(-c2[nH]c(C3CCN(c4ncnc5[nH]c(-c6ccnc(OC)c6)cc45)CC3)nc2C)ccc1C` [P-3096, 4-[4-[5-(3-ethoxy-4-methyl-phenyl)-4-methyl-1H-imidazol-2-yl]-1-piperidyl]-6-(2-methoxy-4-pyridyl)-7H-pyrrolo[2,3-d]pyrimidine] gave an IC50 of 0.0001 to 1 µM. As for `Cc1nc(C2CCN(c3ncnc4[nH]c(-c5ccnc(C(F)(F)F)c5)cc34)CC2)[nH]c1-c1ccccc1` [P-3097, 4-[4-(4-methyl-5-phenyl-1H-imidazol-2-yl)-1-piperidyl]-6-[2-(trifluoromethyl)-4-pyridyl]-7H-pyrrolo[2,3-d]pyrimidine], the IC50 was in the range of 1 to 10 µM.

`Cc1nc(C2CCN(c3ncnc4[nH]c(-c5cccc(C(F)(F)F)c5)cc34)CC2)[nH]c1-c1ccccc1` [P-3098, 4-[4-(4-methyl-5-phenyl-1H-imidazol-2-yl)-1-piperidyl]-6-[3-(trifluoromethyl)phenyl]-7H-pyrrolo[2,3-d]pyrimidine] registered an IC50 of 1 to 10 µM. With `CCOc1ccc(-c2[nH]c(C3(C)CCN(c4ncnc5[nH]c(C)cc45)CC3)nc2C)cc1C` [P-3099, 4-[4-[5-(4-ethoxy-3-methyl-phenyl)-4-methyl-1H-imidazol-2-yl]-4-methyl-1-piperidyl]-6-methyl-7H-pyrrolo[2,3-d]pyrimidine] the figure was 0.0001 to 1 µM. With `CCc1ccc(-c2[nH]c(C3(C)CCN(c4ncnc5[nH]c(C)cc45)CC3)nc2C)cc1` [P-3101, 4-[4-[5-(4-ethylphenyl)-4-methyl-1H-imidazol-2-yl]-4-methyl-1-piperidyl]-6-methyl-7H-pyrrolo[2,3-d]pyrimidine] the figure was 0.0001 to 1 µM; with `COc1ccc(-c2[nH]c(C3(C)CCN(c4ncnc5[nH]c(C)cc45)CC3)nc2C)cc1C` [P-3102, 4-[4-[5-(4-methoxy-3-methyl-phenyl)-4-methyl-1H-imidazol-2-yl]-4-methyl-1-piperidyl]-6-methyl-7H-pyrrolo[2,3-d]pyrimidine], 1 to 10 µM; with `COc1cc(-c2cc3c(N4CCC(c5nc(C)c(-c6ccc(C)c(OC)c6)[nH]5)CC4)ncnc3[nH]2)ccn1` [P-3104, 4-[4-[5-(3-methoxy-4-methyl-phenyl)-4-methyl-1H-imidazol-2-yl]-1-piperidyl]-6-(2-methoxy-4-pyridyl)-7H-pyrrolo[2,3-d]pyrimidine], 10 to 300 µM. `COc1cc(-c2[nH]c(C3(C)CCN(c4ncnc5[nH]c(C)cc45)CC3)nc2C)ccc1C` [P-3105, 4-[4-[5-(3-methoxy-4-methyl-phenyl)-4-methyl-1H-imidazol-2-yl]-4-methyl-1-piperidyl]-6-methyl-7H-pyrrolo[2,3-d]pyrimidine] returned an IC50 of 1 to 10 µM. With `COc1cc(-c2[nH]c(C3CCN(c4ncnc5[nH]c(-c6ccc(C#N)cc6)cc45)CC3)nc2C)ccc1C` [P-3106, 4-[4-[4-[5-(3-methoxy-4-methyl-phenyl)-4-methyl-1H-imidazol-2-yl]-1-piperidyl]-7H-pyrrolo[2,3-d]pyrimidin-6-yl]benzonitrile] the figure was 1 to 10 µM; with `Cc1nc(C2CCN(c3ncnc4[nH]c(-c5cnn(C(F)F)c5)cc34)CC2)[nH]c1-c1ccc(F)cc1` [P-3107, 6-[1-(difluoromethyl)pyrazol-4-yl]-4-[4-[5-(4-fluorophenyl)-4-methyl-1H-imidazol-2-yl]-1-piperidyl]-7H-pyrrolo[2,3-d]pyrimidine], 0.0001 to 1 µM. Regarding `COc1ccc(-c2[nH]c(C3CCN(c4ncnc5[nH]c(-c6cnn(C(F)F)c6)cc45)CC3)nc2C)cc1` [P-3108, 6-[1-(difluoromethyl)pyrazol-4-yl]-4-[4-[5-(4-methoxyphenyl)-4-methyl-1H-imidazol-2-yl]-1-piperidyl]-7H-pyrrolo[2,3-d]pyrimidine], the IC50 was in the range of 0.0001 to 1 µM. Molecule `Cc1nc(C2CCN(c3ncnc4[nH]c(-c5ccc(F)cc5)cc34)CC2)[nH]c1-c1ccc2c(c1)OC(F)(F)O2` [P-3109, 4-[4-[5-(2,2-difluoro-1,3-benzodioxol-5-yl)-4-methyl-1H-imidazol-2-yl]-1-piperidyl]-6-(4-fluorophenyl)-7H-pyrrolo[2,3-d]pyrimidine] returned a 50% inhibitory concentration (IC50) of 1 to 10 µM. With `Cc1nc(C2CCN(c3ncnc4[nH]c(-c5ccc(C#N)cc5)cc34)CC2)[nH]c1-c1ccc2c(c1)OC(F)(F)O2` [P-3110, 4-[4-[4-[5-(2,2-difluoro-1,3-benzodioxol-5-yl)-4-methyl-1H-imidazol-2-yl]-1-piperidyl]-7H-pyrrolo[2,3-d]pyrimidin-6-yl]benzonitrile] the figure was 10 to 300 µM; with `COc1cc(-c2cc3c(N4CCC(c5nc(C)c(-c6ccc7c(c6)OC(F)(F)O7)[nH]5)CC4)ncnc3[nH]2)ccn1` [P-3111, 4-[4-[5-(2,2-difluoro-1,3-benzodioxol-5-yl)-4-methyl-1H-imidazol-2-yl]-1-piperidyl]-6-(2-methoxy-4-pyridyl)-7H-pyrrolo[2,3-d]pyrimidine], 10 to 300 µM; with `COc1ccc(-c2[nH]c(C3CCN(c4ncnc5[nH]c(-c6ccc(C#N)cc6)cc45)CC3)nc2C)cn1` [P-3112, 4-[4-[4-[5-(6-methoxy-3-pyridyl)-4-methyl-1H-imidazol-2-yl]-1-piperidyl]-7H-pyrrolo[2,3-d]pyrimidin-6-yl]benzonitrile], 0.0001 to 1 µM. Take `Cc1nc(C2CCN(c3ncnc4[nH]c(-c5ccc(C#N)cc5)cc34)CC2)[nH]c1-c1ccc(OC(F)F)cc1` [P-3113, 4-[4-[4-[5-[4-(difluoromethoxy)phenyl]-4-methyl-1H-imidazol-2-yl]-1-piperidyl]-7H-pyrrolo[2,3-d]pyrimidin-6-yl]benzonitrile]: the 50% inhibitory concentration (IC50) lay in the range of 1 to 10 µM.

The term IC50 denotes the concentration needed to halve the response being measured. A lower IC50 goes with greater potency.
